From patent US11407738B2 (Achillion Pharmaceuticals, Inc., priority 2015, dated 2022)

These compounds were tested against Human Factor D (Homo sapiens (Human), UniProt P00746) (assay: Human Factor D assay). Settings: Table 3; Factor D inhibition, substrate Z-L-Lys-SBzl.
Chain of Human Factor D (P00746 26-253): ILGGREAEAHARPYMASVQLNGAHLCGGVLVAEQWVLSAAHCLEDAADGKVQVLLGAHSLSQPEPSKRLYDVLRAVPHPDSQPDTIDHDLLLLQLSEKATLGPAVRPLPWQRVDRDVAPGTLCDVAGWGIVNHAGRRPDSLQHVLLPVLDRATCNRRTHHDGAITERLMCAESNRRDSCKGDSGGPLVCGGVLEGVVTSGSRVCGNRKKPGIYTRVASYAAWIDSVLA
Assay type: biochemical
Experimental: Human Factor D (purified from human serum, Complement Technology, Inc.) at 80 nM final concentration is incubated with test compound at various concentrations for 5 min at room temperature in 50 mM Tris, 1M NaCl, pH 7.5. A synthetic substrate Z-L-Lys-SBzl and DTNB (Ellman's reagent) are added to final concentrations of 100 μM each. […] IC50 values are calculated by nonlinear regression of complement Factor D reaction rates as a function of test compound concentration.
`CC(=O)c1cn(CC(=O)N[C@H](C(=O)Nc2cccc(-c3ccccc3Cl)c2F)[C@@H](C)O)c2ccc(-c3cnc(C)nc3)cc12` [Compound 500] was tested, and the IC50 was less than 1 µM. In the case of `CC(=O)c1cn(CC(=O)N2C[C@H](F)C[C@H]2C(=O)Nc2cccc(-c3ccccc3Cl)c2F)c2ccc(-c3cnc(O[C@@H]4CO[C@H]5[C@@H]4OC[C@H]5O)nc3)cc12` [Compound 501, (2S,4R)-1-(2-(3-Acetyl-5-(2-((3R,3aR,6R,6aR)-6-hydroxyhexahydrofuro[3,2-b]furan-3-yloxy)pyrimidin-5-yl)-1H-indol-1-yl)acetyl)-N-(2′-chloro-2-fluorobiphenyl-3-yl)-4-fluoropyrrolidine-2-carboxamide], the IC50 is reported as less than 1 µM. `CC(=O)c1cn(CC(=O)N2C[C@H](F)C[C@H]2C(=O)Nc2cccc(Br)n2)c2ccc(-c3cnc(O[C@@H]4CO[C@H]5[C@@H]4OC[C@H]5O)nc3)cc12` [Compound 502, (2S,4R)-1-(2-(3-Acetyl-5-(2-((3R,3aR,6R,6aR)-6-hydroxyhexahydrofuro[3,2-b]furan-3-yloxy)pyrimidin-5-yl)-1H-indol-1-yl)acetyl)-N-(6-bromopyridin-2-yl)-4-fluoropyrrolidine-2-carboxamide] gave an IC50 of less than 1 µM. `CO[C@@H]1CO[C@H]2[C@@H]1OC[C@H]2Oc1ncc(-c2ccc3c(c2)c(C(C)=O)cn3CC(=O)N2C[C@H](F)C[C@H]2C(=O)Nc2cccc(-c3ccccc3Cl)c2F)cn1` [Compound 503, (2S,4R)-1-(2-(3-Acetyl-5-(2-((3R,3aR,6R,6aR)-6-methoxyhexahydrofuro[3,2-b]furan-3-yloxy)pyrimidin-5-yl)-1H-indol-1-yl)acetyl)-N-(2′-chloro-2-fluorobiphenyl-3-yl)-4-fluoropyrrolidine-2-carboxamide] showed an IC50 of less than 1 µM. With `CC(=O)c1nn(CC(=O)N2C[C@H](F)C[C@H]2C(=O)Nc2cccc(S(F)(F)(F)(F)F)c2)c2ccc(-c3cnc(C)nc3)cc12` [Compound 504, (2S,4R)-1-(2-(3-Acetyl-5-(2-methylpyrimidin-5-yl)-1H-indazol-1-yl)acetyl)-4-fluoro-N-(3-(pentafluoro-λ^6-sulfanyl)phenyl)pyrrolidine-2-carboxamide] the IC50 was less than 1 µM. In the case of `CC(=O)c1cn(CC(=O)N[C@H](C(=O)Nc2cccc(Br)n2)[C@@H](C)O)c2ccc(-c3cnc(C)nc3)cc12` [Compound 505, (2S,3R)-2-(2-(3-Acetyl-5-(2-methylpyrimidin-5-yl)-1H-indol-1-yl)acetamido)-N-(6-bromopyridin-2-yl)-3-hydroxybutanamide], the IC50 is reported as less than 1 µM. `CC(=O)c1cn(CC(=O)N(C)[C@H](C(=O)Nc2cccc(-c3ccccc3Cl)c2F)[C@@H](C)O)c2ccc(-c3cnc(C)nc3)cc12` [Compound 506, (2S,3R)-2-(2-(3-Acetyl-5-(2-methylpyrimidin-5-yl)-1H-indol-1-yl)-N-methylacetamido)-N-(2′-chloro-2-fluorobiphenyl-3-yl)-3-hydroxybutanamide] gave an IC50 of 1 to 10 µM. `CC(=O)c1cn(CC(=O)NC(CC(F)(F)F)C(=O)Nc2cccc(-c3ccccc3Cl)c2F)c2ccc(-c3cnc(C)nc3)cc12` (stereo not drawn) [Compound 507, 2-(2-(3-Acetyl-5-(2-methylpyrimidin-5-yl)-1H-indol-1-yl)acetamido)-N-(2′-chloro-2-fluorobiphenyl-3-yl)-4,4,4-trifluorobutanamide] was tested, and the IC50 was greater than 10 µM. Work on `CO[C@@H]1CO[C@H]2[C@@H]1OC[C@H]2Oc1ncc(-c2ccc3c(c2)c(C(C)=O)cn3CC(=O)N2C[C@H](F)C[C@H]2C(=O)Nc2cccc(Br)n2)cn1` [Compound 508, (2S,4R)-1-(2-(3-Acetyl-5-(2-((3R,3aR,6R,6aR)-6-methoxyhexahydrofuro[3,2-b]furan-3-yloxy)pyrimidin-5-yl)-1H-indol-1-yl)acetyl)-N-(6-bromopyridin-2-yl)-4-fluoropyrrolidine-2-carboxamide] yielded an IC50 of less than 1 µM. Work on `COC(=O)C[C@H]1CCCN1C(=O)Cn1nc(C(C)=O)c2cc(-c3cnc(C)nc3)ccc21` [Compound 509, (R)-methyl 2-(1-(2-(3-acetyl-5-(2-methylpyrimidin-5-yl)-1H-indazol-1-yl)acetyl)pyrrolidin-2-yl)acetate] yielded an IC50 greater than 10 µM. Work on `CC(=O)c1nn(CC(=O)N2CCC[C@@H]2CC(=O)O)c2ccc(-c3cnc(C)nc3)cc12` [Compound 510, (R)-2-(1-(2-(3-acetyl-5-(2-methylpyrimidin-5-yl)-1H-indazol-1-yl)acetyl)pyrrolidin-2-yl)acetic acid] yielded an IC50 greater than 10 µM. With `CC(=O)c1nn(CC(=O)N2C[C@H](F)C[C@H]2C(=O)Nc2ccc3c(S(=O)(=O)O)cccc3c2)c2ccc(-c3cnc(C)nc3)cc12` [Compound 511, 6-((2S,4R)-1-(2-(3-Acetyl-5-(2-methylpyrimidin-5-yl)-1H-indazol-1-yl)acetyl)-4-fluoropyrrolidine-2-carboxamido)naphthalene-1-sulfonic Acid] the IC50 was 1 to 10 µM. With `CC(=O)c1nn(CC(=O)N2C[C@H](F)C[C@H]2C(=O)NC2CCN(c3ccc(C(=O)O)cn3)CC2)c2ccc(-c3cnc(C)nc3)cc12` [Compound 512, 6-(4-((2S,4R)-1-(2-(3-Acetyl-5-(2-methylpyrimidin-5-yl)-1H-indazol-1-yl)acetyl)-4-fluoropyrrolidine-2-carboxamido)piperidin-1-yl)nicotinic Acid] the IC50 was 1 to 10 µM. For `COC(=O)[C@@H]1C[C@@H](F)CN1C(=O)Cn1nc(C(C)=O)c2cc(-c3cnc(C)nc3)ccc21` [Compound 513, (2S,4R)-methyl 1-(2-(3-acetyl-5-(2-methylpyrimidin-5-yl)-1H-indazol-1-yl)acetyl)-4-fluoropyrrolidine-2-carboxylate], the IC50 was greater than 10 µM. `CC(=O)c1nn(CC(=O)N2C[C@H](F)C[C@H]2C(=O)OCc2cccc(Cl)c2F)c2ccc(-c3cnc(C)nc3)cc12` [Compound 515, 3-Chloro-2-fluorobenzyl (2S,4R)-1-(2-(3-acetyl-5-(2-methylpyrimidin-5-yl)-1H-indazol-1-yl)acetyl)-4-fluoropyrrolidine-2-carboxylate] showed an IC50 of 1 to 10 µM. Compound `CC(=O)c1nn(CC(=O)N2C[C@H](F)C[C@H]2C(=O)SCc2cccc(Cl)c2F)c2ccc(-c3cnc(C)nc3)cc12` [Compound 516, S-(3-Chloro-2-fluorobenzyl) (2S,4R)-1-(2-(3-acetyl-5-(2-methylpyrimidin-5-yl)-1H-indazol-1-yl)acetyl)-4-fluoropyrrolidine-2-carbothioate] has an IC50 of 1 to 10 µM. `CC(=O)c1nn(CC(=O)N2C[C@H](F)C[C@H]2C(=S)NCc2cccc(Cl)c2F)c2ccc(-c3cnc(C)nc3)cc12` [Compound 517, (2S,4R)-1-(2-(3-Acetyl-5-(2-methylpyrimidin-5-yl)-1H-indazol-1-yl)acetyl)-N-(3-chloro-2-fluorobenzyl)-4-fluoropyrrolidine-2-carbothioamide] showed an IC50 of less than 1 µM. In the case of `CC(=O)c1nn2c3ccc(cc13)-c1cnc(nc1)NCCCCCCCCC/C=C\c1cc(Cl)c(F)c(c1)CNC(=O)[C@@H]1C[C@@H](F)CN1C(=O)C2` [Compound 518, (5^2S,5^4R,Z)-2^3-acetyl-9^5-chloro-5^4,9^6-difluoro-2^1H-7,21-diaza-2(5,1)-indazola-1(5,2)-pyrimidina-5(1,2)-pyrrolidina-9(1,3)-benzenacyclohenico-saphan-10-ene-4,6-dione], the IC50 is reported as less than 1 µM. With `CC(=O)c1nn(CC(=O)N2C[C@H](F)C[C@H]2C(=O)Nc2cccc(-c3ccc4scnc4c3)c2F)c2ccc(-c3cnc4cc(C)nn4c3)cc12` [Compound 519, (2S,4R)-1-(2-(3-acetyl-5-(2-methylpyrazolo[1,5-a]pyrimidin-6-yl)-1H-indazol-1-yl)acetyl)-N-(3-(benzo[d]thiazol-5-yl)-2-fluorophenyl)-4-fluoropyrrolidine-2-carboxamide] the IC50 was less than 1 µM. In the case of `CC(=O)c1nn(CC(=O)N2C[C@H](F)C[C@H]2C(=O)Nc2cccc(-c3ccc4scnc4c3)c2F)c2ccc(-c3cnc(C)nc3)cc12` [Compound 520, (2S,4R)-1-(2-(3-acetyl-5-(2-methylpyrimidin-5-yl)-1H-indazol-1-yl)acetyl)-N-(3-(benzo[d]thiazol-5-yl)-2-fluorophenyl)-4-fluoropyrrolidine-2-carboxamide], the IC50 is reported as less than 1 µM. Work on `CC(=O)c1nn(CC(=O)N2C[C@H](F)C[C@H]2C(=O)Nc2cccc(-c3cc(S(=O)(=O)NC4CC4)ccc3Cl)c2F)c2ccc(-c3cnc(C)nc3)cc12` [Compound 521, (2S,4R)-1-(2-(3-acetyl-5-(2-methylpyrimidin-5-yl)-1H-indazol-1-yl)acetyl)-N-(2′-chloro-5′-(N-cyclopropyl-sulfamoyl)-2-fluorobiphenyl-3-yl)-4-fluoropyrrolidine-2-carboxamide] yielded an IC50 of less than 1 µM. In the case of `CC(=O)Cc1nn(CC(=O)N2C[C@H](F)C[C@H]2C(=O)Nc2cccc(Br)n2)c2ccc(-c3cnc(C)nc3)cc12` [Compound 522, (2S,4R)-N-(6-bromopyridin-2-yl)-4-fluoro-1-(2-(5-(2-methylpyrimidin-5-yl)-3-(2-oxopropyl)-1H-indazol-1-yl)acetyl)pyrrolidine-2-carboxamide], the IC50 is reported as less than 1 µM. Compound `CC(=O)c1nn(CC(=O)N2C[C@H](F)C[C@H]2C(=O)N2CCn3c(nnc3C(F)(F)F)C2)c2ccc(-c3cnc(C)nc3)cc12` [Compound 524, 2-(3-acetyl-5-(2-methylpyrimidin-5-yl)-1H-indazol-1-yl)-1-((2S,4R)-4-fluoro-2-(3-(trifluoromethyl)-5,6,7,8-tetrahydro-[1,2,4]triazolo[4,3-a]pyrazine-7-carbonyl)pyrrolidin-1-yl)ethanone] has an IC50 greater than 10 µM. For `CC(=O)c1nn(CC(=O)N2C[C@H](F)C[C@H]2C(=O)Nc2cccc(-c3cc(S(N)(=O)=O)ccc3Cl)c2F)c2ccc(-c3cnc(C)nc3)cc12` [Compound 525, (2S,4R)-1-(2-(3-acetyl-5-(2-methylpyrimidin-5-yl)-1H-indazol-1-yl)acetyl)-N-(2′-chloro-2-fluoro-5′-sulfamoylbiphenyl-3-yl)-4-fluoropyrrolidine-2-carboxamide], the IC50 was less than 1 µM.
